± gives the expanded uncertainty stated by the source.
Settings: for mass density: 100 kPa, Liquid, buoyancy

CCC[n+]1ccc(C)cc1.O=S(=O)([N-]S(=O)(=O)C(F)(F)F)C(F)(F)F
Settings	mass density [kg/m3]
268.1 K	1482.1 ± 0.64
278.71 K	1469.95 ± 0.64
283.45 K	1465.84 ± 0.64
288.19 K	1461.42 ± 0.64
293.46 K	1456.03 ± 0.64
298.38 K	1450.93 ± 0.64
303.12 K	1446.6 ± 0.64
308.24 K	1440.93 ± 0.64
313.15 K	1435.96 ± 0.64
318.2 K	1431.59 ± 0.64
323.16 K	1426.43 ± 0.64
328.14 K	1421.84 ± 0.64
333.57 K	1416.94 ± 0.64
338.25 K	1412.36 ± 0.64
343.8 K	1407.53 ± 0.64
348.11 K	1402.8 ± 0.64
353.25 K	1398.13 ± 0.64
357.74 K	1394 ± 0.64
362.63 K	1389.16 ± 0.64

surface tension liquid-gas [mN/m]
Settings	Ring tensiometer	Wilhelmy plate
288.19 K	35.82 ± 0.5	–
288.22 K	–	35.61 ± 0.08
293.49 K	35.56 ± 0.5	35.39 ± 0.08
298.37 K	35.36 ± 0.5	35.2 ± 0.08
303.11 K	35.17 ± 0.5	–
303.12 K	–	35 ± 0.08
308.15 K	34.96 ± 0.49	–
308.17 K	–	34.85 ± 0.08
313.06 K	34.66 ± 0.49	34.65 ± 0.08
318.14 K	–	34.48 ± 0.08
318.15 K	34.46 ± 0.49	–
323.06 K	–	34.25 ± 0.08
323.07 K	34.23 ± 0.49	–
327.97 K	33.95 ± 0.48	–
328 K	–	34.04 ± 0.08
332.97 K	33.7 ± 0.48	–
333.36 K	–	33.79 ± 0.08
338.08 K	–	33.6 ± 0.08
338.17 K	33.44 ± 0.48	–
343.75 K	–	33.43 ± 0.08
343.8 K	33.2 ± 0.48	–
347.87 K	–	33.2 ± 0.08
348.11 K	32.98 ± 0.47	–
353.29 K	–	33.01 ± 0.08
353.47 K	32.7 ± 0.47	–
357.58 K	–	32.83 ± 0.08
357.72 K	32.42 ± 0.47	–
362.45 K	–	32.61 ± 0.08
362.65 K	32.22 ± 0.47	–

CCC[n+]1ccccc1C.O=S(=O)([N-]S(=O)(=O)C(F)(F)F)C(F)(F)F
surface tension liquid-gas [mN/m]
Settings	Ring tensiometer	Wilhelmy plate
264.98 K	37.98 ± 0.53	–
274.35 K	37.65 ± 0.52	–
278.08 K	37.48 ± 0.52	–
283.24 K	37.32 ± 0.52	–
283.37 K	–	36.98 ± 0.07
288.21 K	37.06 ± 0.52	–
288.25 K	–	36.82 ± 0.07
293.4 K	36.9 ± 0.52	–
293.42 K	–	36.65 ± 0.07
298.31 K	36.64 ± 0.51	36.5 ± 0.07
302.93 K	36.45 ± 0.51	–
303.05 K	–	36.31 ± 0.07
307.78 K	36.29 ± 0.51	–
307.82 K	–	36.11 ± 0.07
312.97 K	36.07 ± 0.51	35.95 ± 0.07
318.38 K	–	35.76 ± 0.07
318.39 K	35.83 ± 0.51	–
322.88 K	–	35.52 ± 0.07
322.94 K	35.54 ± 0.5	–
328.34 K	35.29 ± 0.5	35.32 ± 0.07
333.16 K	35.03 ± 0.5	35.12 ± 0.07
337.5 K	34.74 ± 0.5	–
337.93 K	–	34.92 ± 0.07
343.2 K	–	34.77 ± 0.07
343.21 K	34.63 ± 0.5	–
347.6 K	–	34.53 ± 0.07
347.65 K	34.27 ± 0.49	–
353.02 K	34.14 ± 0.49	34.38 ± 0.07
359.26 K	–	34.14 ± 0.07
359.32 K	33.83 ± 0.49	–
363.55 K	–	33.94 ± 0.07
363.67 K	33.73 ± 0.49	–

Settings	mass density [kg/m3]
274.36 K	1487.31 ± 0.6
278.09 K	1484.28 ± 0.6
283.39 K	1478.78 ± 0.6
288.24 K	1473.7 ± 0.6
293.42 K	1468.58 ± 0.6
298.29 K	1464.23 ± 0.6
303.1 K	1459.95 ± 0.6
307.9 K	1454.39 ± 0.6
313.05 K	1449.74 ± 0.6
318.4 K	1444.8 ± 0.6
322.98 K	1440.18 ± 0.6
328.44 K	1435.36 ± 0.6
333.33 K	1430.49 ± 0.6
338.04 K	1426.36 ± 0.6
343.34 K	1421.49 ± 0.6
347.7 K	1417.08 ± 0.6
353.28 K	1412.49 ± 0.6
359.15 K	1407.9 ± 0.6
363.7 K	1403.29 ± 0.6

CCC[n+]1ccccc1.O=S(=O)([N-]S(=O)(=O)C(F)(F)F)C(F)(F)F [1-propylpyridinium bis((trifluoromethyl)sulfonyl)amide]
Settings	surface tension liquid-gas [mN/m]
318.35 K, Wilhelmy plate	34.52 ± 0.06
318.38 K, Ring tensiometer	34.67 ± 0.48
322.86 K, Wilhelmy plate	34.29 ± 0.06
322.89 K, Ring tensiometer	34.46 ± 0.48
328.15 K, Wilhelmy plate	34.02 ± 0.06
328.19 K, Ring tensiometer	34.21 ± 0.48
333.17 K, Wilhelmy plate	33.75 ± 0.06
333.21 K, Ring tensiometer	33.97 ± 0.48
338 K, Wilhelmy plate	33.56 ± 0.06
338.03 K, Ring tensiometer	33.8 ± 0.47
343.1 K, Wilhelmy plate	33.35 ± 0.06
343.11 K, Ring tensiometer	33.56 ± 0.47
347.59 K, Ring tensiometer	33.34 ± 0.47
347.63 K, Wilhelmy plate	33.13 ± 0.06
353.31 K, Wilhelmy plate	32.87 ± 0.06
353.34 K, Ring tensiometer	33.1 ± 0.47
358.35 K, Wilhelmy plate	32.64 ± 0.06
358.37 K, Ring tensiometer	32.82 ± 0.46
362.09 K, Wilhelmy plate	32.43 ± 0.06
362.18 K, Ring tensiometer	32.61 ± 0.46

Settings	mass density [kg/m3]
318.41 K	1468.8 ± 0.54
323.02 K	1464.45 ± 0.54
328.3 K	1459.61 ± 0.54
333.28 K	1454.58 ± 0.54
338.11 K	1450.05 ± 0.54
343.18 K	1445.34 ± 0.54
347.36 K	1440.68 ± 0.54
353.35 K	1435.49 ± 0.54
357.87 K	1430.78 ± 0.54
362.15 K	1426.55 ± 0.54

CCC[n+]1cccc(C)c1.O=S(=O)([N-]S(=O)(=O)C(F)(F)F)C(F)(F)F
surface tension liquid-gas [mN/m]
Settings	Ring tensiometer	Wilhelmy plate
264.14 K	36.35 ± 0.5	–
268.06 K	36.23 ± 0.5	–
273.39 K	36.1 ± 0.5	–
273.45 K	–	35.78 ± 0.06
278.42 K	35.88 ± 0.5	35.59 ± 0.06
283.19 K	35.6 ± 0.49	–
283.2 K	–	35.41 ± 0.06
288.5 K	35.39 ± 0.49	–
288.67 K	–	35.22 ± 0.06
292.92 K	35.23 ± 0.49	–
292.99 K	–	35.06 ± 0.06
298.42 K	35.03 ± 0.49	–
298.44 K	–	34.88 ± 0.06
303.1 K	34.83 ± 0.48	–
303.12 K	–	34.68 ± 0.06
308.03 K	34.64 ± 0.48	–
308.04 K	–	34.53 ± 0.06
312.72 K	–	34.29 ± 0.06
312.75 K	34.39 ± 0.48	–
318.22 K	34.12 ± 0.48	–
318.25 K	–	34.08 ± 0.06
323.19 K	–	33.91 ± 0.06
323.23 K	33.95 ± 0.47	–
328.11 K	33.69 ± 0.47	33.65 ± 0.06
333.15 K	–	33.46 ± 0.06
333.21 K	33.43 ± 0.47	–
339.21 K	–	33.18 ± 0.06
339.28 K	33.18 ± 0.46	–
342.59 K	33.03 ± 0.46	–
342.65 K	–	33.08 ± 0.06
347.77 K	–	32.85 ± 0.06
347.91 K	32.78 ± 0.46	–
352.59 K	–	32.7 ± 0.06
352.62 K	32.49 ± 0.46	–

Settings	mass density [kg/m3]
264.25 K	1481.37 ± 0.82
268.17 K	1476.75 ± 0.82
273.62 K	1471.18 ± 0.82
278.64 K	1466.69 ± 0.82
283.23 K	1461.95 ± 0.82
288.58 K	1456.8 ± 0.82
293 K	1452.82 ± 0.82
298.44 K	1448.15 ± 0.82
303.17 K	1443.76 ± 0.82
308.13 K	1438.23 ± 0.82
312.76 K	1433.63 ± 0.82
318.32 K	1428.63 ± 0.82
323.28 K	1423.98 ± 0.82
328.19 K	1419.2 ± 0.82
333.31 K	1414.52 ± 0.82
339.09 K	1409.83 ± 0.82
342.77 K	1406.02 ± 0.82
348.02 K	1401 ± 0.82
352.77 K	1396.52 ± 0.82
358.08 K	1391.47 ± 0.82
363.28 K	1386.7 ± 0.82

Reference: the NIST ThermoML archive (doi:10.1016/j.fluid.2016.10.004)
